Measured values as given in patent publication US20090054421A1, “Pyrimidothiophene Compounds Having HSP90 Inhibitory Activity” (Vernalis R & D Limited, priority 2005, published 2009).
pIC50: −log10 of the molar value.

Target: T1, human full-length HSP90 (Homo sapiens, UniProt P08238)
T1 construct: E. coli expressed human full-length HSP90 protein, purified >95%; made in house; host or cells: E. coli
Experiment: Fluorescence polarization assay (competitive displacement of fluorescein-labelled probe from HSP90)
Assay type: binding
Conditions: activity range A or B
Source text: Fluorescence Polarization Assay
Fluorescence polarization {also known as fluorescence anisotropy} measures the rotation of a fluorescing species in solution, where the larger molecule the more polarized the fluorescence emission. When the fluorophore is excited with polarized light, the emitted light is also polarized. The molecular size is proportional to the polarization of the fluorescence emission.
The fluoroscein-labelled probe—
binds to HSP90 {full-length human, full-length yeast or N-terminal domain HSP90} and the anisotropy {rotation of the probe:protein complex} is measured.
Test compound is added to the assay plate, left to equilibrate and the anisotropy measured again. Any change in anisotropy is due to competitive binding of compound to HSP90, thereby releasing probe.
Chemicals are of the highest purity commercially available and all aqueous solutions are made up in AR water. • 1) Costar 96-well black assay plate #3915 • 2) Assay buffer of (a) 100 mM Tris pH7.4; (b) 20 mM KCl; (c) 6 mM MgCl2. Stored at room temperature. • 3) BSA (bovine serum albumen) 10 mg/ml (New England Biolabs # B9001S) • 4) 20 mM probe in 100% DMSO stock concentration. Stored in the dark at RT. Working concentration is 200 nM diluted in AR water and stored at 4° C., Final concentration in assay 80 nM. • 5) E. coli expressed human full-length HSP90 protein, purified >95% (see, e.g., Panaretou et al., 1998) and stored in 50 μL aliquots at −80° C.
• 1) Add 100 μl 1× buffer to wells 11A and 12A (=FP BLNK) • 2) Prepare assay mix—all reagents are kept on ice with a lid on the bucket as the probe is light-sensitive.
• 3) Aliquot 100 μl assay mix to all other wells • 4) Seal plate and leave in dark at room temp for 20 minutes to equilibrate Compound Dilution Plate—1×3 dilution series • 1) In a clear 96-well v-bottom plate—{# VWR 007/008/257} add 10 μl 100% DMSO to wells B1 to H11 • 2) To wells A1 to A11 add 17.5 μl 100% DMSO • 3) Add 2.5 μl cpd to A1. This gives 2.5 mM {50×} stock cpd—assuming cpds 20 mM. • 4) Repeat for wells A2 to A10. Control in columns 11 and 12. • 5) Transfer 5 μl from row A to row B—not column 12. Mix well. • 6) Transfer 5 μl from row B to row C. […] In column 11 {provides standard curve} only add compound B11-H11. Add 2 μl of 100 mM standard cpd to wells B12-H12 {is positive control} • 13) The Z′ factor is calculated from zero controls and positive wells. It typically gives a value of 0.7-0.9.
The compounds tested in the above assay were assigned to one of two activity ranges, namely A=<10 μM; B=>10 μM, and those assignments are reported above.

T1 sequence (P08238 whole entry): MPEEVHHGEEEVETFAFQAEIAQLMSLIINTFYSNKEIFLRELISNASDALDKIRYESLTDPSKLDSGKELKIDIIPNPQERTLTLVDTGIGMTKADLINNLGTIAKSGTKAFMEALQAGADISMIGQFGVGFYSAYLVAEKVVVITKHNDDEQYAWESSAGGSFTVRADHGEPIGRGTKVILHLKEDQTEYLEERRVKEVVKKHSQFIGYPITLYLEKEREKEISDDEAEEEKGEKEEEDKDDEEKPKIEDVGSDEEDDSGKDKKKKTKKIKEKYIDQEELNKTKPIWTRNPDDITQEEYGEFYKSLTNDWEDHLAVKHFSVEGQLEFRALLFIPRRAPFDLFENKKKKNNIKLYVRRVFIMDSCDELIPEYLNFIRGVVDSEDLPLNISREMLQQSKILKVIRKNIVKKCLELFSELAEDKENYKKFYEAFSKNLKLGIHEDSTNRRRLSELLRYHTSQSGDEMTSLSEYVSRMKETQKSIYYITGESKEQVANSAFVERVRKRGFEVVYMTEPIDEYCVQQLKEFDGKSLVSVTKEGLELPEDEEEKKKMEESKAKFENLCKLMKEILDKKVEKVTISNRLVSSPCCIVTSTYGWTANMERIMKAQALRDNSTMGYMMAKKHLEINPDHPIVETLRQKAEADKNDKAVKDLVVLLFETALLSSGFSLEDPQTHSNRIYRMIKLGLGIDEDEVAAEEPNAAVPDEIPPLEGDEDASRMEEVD

| SMILES | pIC50 |
| --- | --- |
| Nc1nc(C(=NOCCN2CCCC2)c2ccc3c(c2)OCO3)c2cc(C(=O)NCC(F)(F)F)sc2n1 [Example 75] | > 5.00 |
| CCN(CC)CCON=C(c1ccc2c(c1)OCO2)c1nc(N)nc2sc(C(=O)NC(C)(C)C)cc12 [Example 55] | > 5.00 |
| CCNC(=O)c1cc2c(C(=NO)c3ccoc3)nc(N)nc2s1 [Example 19] | > 5.00 |
| CCNC(=O)c1cc2c(C(=NO)c3ccc(-n4cccc4)cc3)nc(N)nc2s1 [Example 80] | > 5.00 |
| CCNC(=O)c1cc2c(C(=NOCCN3CCCC3=O)c3ccc(N4CCCC4=O)cc3)nc(N)nc2s1 [Example 77] | > 5.00 |
| CCNC(=O)c1cc2c(C(=NO)c3ccc4ccccc4c3)nc(N)nc2s1 [Example 14] | > 5.00 |
| COCCNC(=O)c1cc2c(C(=NOCCN3CCCC3=O)c3ccc4c(c3)OCO4)nc(N)nc2s1 (mixture of isomers) [Example 57] | > 5.00 |
| CCNC(=O)c1cc2c(C(=NOCC(=O)O)c3ccc4c(c3)OCO4)nc(N)nc2s1 [Example 34] | > 5.00 |
| CCNC(=O)c1cc2c(C(=NOCCN3CCCC3=O)c3ccc4c(c3)OCO4)nc(N)nc2s1 (mixture of isomers) [Example 29] | > 5.00 |
| CCNC(=O)c1cc2c(C(=NOCCN(CC)CC)c3ccc(OC)c(OC)c3)nc(N)nc2s1 [Example 62] | > 5.00 |
| CCNC(=O)c1cc2c(C(=NO)c3ccco3)nc(N)nc2s1 [Example 17] | > 5.00 |
| CCNC(=O)c1cc2c(C(=NO)c3ccc(N4CCCC4=O)cc3)nc(N)nc2s1 [Example 78] | > 5.00 |
| CCNC(=O)c1cc2c(C(=NOCCN3CCCC3)c3ccc4c(c3)OCO4)nc(N)nc2s1 (mixture of isomers) [Example 28] | > 5.00 |
| CCOC(=O)c1cc2c(C(=NOC)c3ccc4c(c3)OCO4)nc(N)nc2s1 [Example 4, 2-Amino-4-(benzo[1,3]dioxol-5-yl-methoxyimino-methyl)-thieno[2,3-d]pyrimidine-6-carboxylic acid ethyl ester] | > 5.00 |
| CN(C)CCNC(=O)c1cc2c(C(=NOCCN3CCCC3=O)c3ccc4c(c3)OCO4)nc(N)nc2s1 [Example 64] | < 5.00 |
| COCCNC(=O)c1cc2c(C(=NO)c3ccc4c(c3)OCO4)nc(N)nc2s1 [Example 22] | > 5.00 |
| CCNC(=O)c1cc2c(C(=NO)c3ccc4[nH]ccc4c3)nc(N)nc2s1 [Example 18] | > 5.00 |
| CCNC(=O)c1cc2c(C(=NO)c3cccs3)nc(N)nc2s1 [Example 50] | > 5.00 |
| CCN(CC)CCON=C(c1ccc2c(c1)OCO2)c1nc(N)nc2sc(C(=O)NCC(F)(F)F)cc12 [Example 74] | > 5.00 |
| CCNC(=O)c1cc2c(C(=NOCCN3CCCC3)c3ccncc3)nc(N)nc2s1 [Example 48] | < 5.00 |
| CCN(CC)CCON=C(c1ccc2c(c1)OCO2)c1nc(N)nc2sc(C(=O)NC(C)C)cc12 [Example 44] | > 5.00 |
| CCN(CC)CCON=C(c1ccc2c(c1)OCO2)c1nc(N)nc2sc(C(=O)NCCOC)cc12 [Example 52] | > 5.00 |
| CCNC(=O)c1cc2c(C(=NO)c3ccc(OC)c(OC)c3)nc(N)nc2s1 [Example 15] | > 5.00 |
| CN(C)CCNC(=O)c1cc2c(C(=NOCCN3CCCC3)c3ccc4c(c3)OCO4)nc(N)nc2s1 [Example 63] | < 5.00 |
| CCNC(=O)c1cc2c(C(=NOCCN3CCCC3)c3ccc(N4CCCC4=O)cc3)nc(N)nc2s1 [Example 72] | > 5.00 |
| Nc1nc(C(=NO)c2ccc3c(c2)OCO3)c2cc(C(=O)NC3CC3)sc2n1 [Example 20, 2-Amino-4-(benzo[1,3]dioxol-5-yl-hydroxyimino-methyl)-thieno[2,3-d]pyrimidine-6-carboxylic acid cyclopropylamide] | > 5.00 |

| SMILES | pIC50 |
| --- | --- |
| CCNC(=O)c1cc2c(C(=NOCC(=O)N3CCCCC3)c3ccc4c(c3)OCO4)nc(N)nc2s1 [Example 35] | > 5.00 |
| CCNC(=O)c1cc2c(C(=NO)c3ccc(OC)cc3)nc(N)nc2s1 [Example 12] | > 5.00 |
| CCNC(=O)c1cc2c(C(=NOCCN3CCCC3=O)c3cccs3)nc(N)nc2s1 [Example 40] | > 5.00 |
| CC(C)(C)NC(=O)c1cc2c(C(=NO)c3ccc4c(c3)OCO4)nc(N)nc2s1 [Example 21] | > 5.00 |
| CCNC(=O)c1cc2c(C(=NO)c3ccc(Cl)cc3)nc(N)nc2s1 [Example 10] | > 5.00 |
| CCNC(=O)c1cc2c(C(=NO)c3cccc(OC)c3)nc(N)nc2s1 [Example 9] | > 5.00 |
| CCNC(=O)c1cc2c(C(=NOCCN(CC)CC)c3ccc4c(c3)OCO4)nc(N)nc2s1 [Example 26, 2-Amino-4-(benzo[1,3]dioxol-5-yl-(2-diethylamino-ethoxyimino)-methyl]-thieno[2,3-d]pyrimidine-6-carboxylic acid ethylamide] | > 5.00 |
| CCNC(=O)c1cc2c(C(=NOCCN(CC)CC)c3ccco3)nc(N)nc2s1 [Example 37] | < 5.00 |
| CCNC(=O)c1cc2c(C(=NOCCN(CC)CC)c3cc4c(cc3Cl)OCO4)nc(N)nc2s1 (mixture of isomers) [Example 30] | > 5.00 |
| CCNC(=O)c1cc2c(C(=NOCCN(CC)CC)c3ccc4c(c3)OCCO4)nc(N)nc2s1 [Example 32] | > 5.00 |
| CCN(CC)CCON=C(c1ccc2c(c1)OCO2)c1nc(N)nc2sc(C(=O)NCCN(C)C)cc12 [Example 65] | < 5.00 |
| CCNC(=O)c1cc2c(C(=NOCCN(CC)CC)c3ccc(OC)cc3)nc(N)nc2s1 [Example 33] | > 5.00 |
| CCNC(=O)c1cc2c(C(=NOCCN3CCCC3=O)c3ccc(-n4cccc4)cc3)nc(N)nc2s1 [Example 71] | < 5.00 |
| CCNC(=O)c1cc2c(C(=NOC)c3ccc4c(c3)OCCN4C)nc(N)nc2s1 (mixture of isomers) [Example 1, 2-Amino-4-[methoxyimino-(4-methyl-3,4-dihydro-2H-benzo[1,4]oxazin-7-yl)-methyl]-thieno[2,3-d]pyrimidine-6-carboxylic acid ethylamide] | > 5.00 |
| CCNC(=O)c1cc2c(C(=NO)c3ccc4c(c3)OCO4)nc(N)nc2s1 [Example 3, 2-Amino-4-(benzo[1,3]dioxol-5-yl-hydroxyimino-methyl)-thieno[2,3-d]pyrimidine-6-carboxylic acid ethylamide] | > 5.00 |
| CCNC(=O)c1cc2c(C(=NOCCN(CC)CC)c3ccco3)nc(N)nc2s1 [Example 41] | > 5.00 |
| CCNC(=O)c1cc2c(C(=NO)c3ccccn3)nc(N)nc2s1 [Example 5] | > 5.00 |
| CCNC(=O)c1cc2c(C(=NOCCN(CC)CC)c3cccc(OC)c3)nc(N)nc2s1 [Example 31] | > 5.00 |
| CN(C)CCCNC(=O)c1cc2c(C(=NO)c3ccc4c(c3)OCO4)nc(N)nc2s1 [Example 23] | > 5.00 |
| CCNC(=O)c1cc2c(C(=NOCCN(CC)CC)c3ccncc3)nc(N)nc2s1 [Example 42] | < 5.00 |
| CC(C)(C)NC(=O)c1cc2c(C(=NOCCN3CCCC3)c3ccc4c(c3)OCO4)nc(N)nc2s1 (mixture of isomers) [Example 54] | > 5.00 |
| CCNC(=O)c1cc2c(C(=NOCCN3CCCC3)c3ccc(-n4cccc4)cc3)nc(N)nc2s1 [Example 68] | < 5.00 |
| CCNC(=O)c1cc2c(C(=NO)c3cccc(Cl)c3)nc(N)nc2s1 [Example 13] | > 5.00 |
| CCNC(=O)c1cc2c(C(=NO)c3ccc4c(c3)CCO4)nc(N)nc2s1 [Example 16] | > 5.00 |
| Nc1nc(C(=NOCCN2CCCC2=O)c2ccc3c(c2)OCO3)c2cc(C(=O)NC3CC3)sc2n1 [Example 61] | > 5.00 |
